Source: publication PMC9491098, “Discovery of novel drug-like antitubercular hits targeting the MEP pathway enzyme DXPS by strategic application of ligand-based virtual screening” (Chemical Science, 2022)
Converted amounts (≈) assume the structure as drawn. “And” between values parts separate entries of the source, which are not always exact repeats. Equal values may be shown once. Read-outs that look alike come from different tables or passages of the source.

Tests used:
E. coli = details: Fig. 1A; cited from earlier work
DXPS = details: cited from earlier work
IspD = details: read-out: Activity on target enzyme: IC50; cited from earlier work
P. falciparum = details: Target pathogen: P. falciparum; Fig. 1A; ref 18–26 (fosmidomycin), 15,27–29 (BITZ, TZLP); cited from earlier work
M. tuberculosis strains = assay: MIC against multiple M. tuberculosis strains, absolute concentration method on 7H10 agar; assay type: cell-based; details: Mycobacterium tuberculosis
HEK293 = assay: toxicity against human cell lines; assay type: cell-based; details: HEK293, 48 h, read-out: Toxicity Human cell lines EC50 (μM) HEK293
HepG2 = assay: toxicity against human cell lines; assay type: cell-based; details: HepG2, 48 h, read-out: Toxicity Human cell lines EC50 (μM) HepG2
[1] = metabolic stability in human liver S9 fraction; details: pooled liver S9 fraction
Description: For vitro assessment of metabolic stability, 10 µL of each compound (10 µM) was
incubated with human pooled liver S9-fraction (1 mg/mL, Corning, Corning, NY, USA)
in a master mix containing 2 mM NADP, 10 mM glucose-6-phosphate, 10 U/mL
glucose-6-phosphate dehydrogenase, 1 mM UDPGA, 0.1 mM PAPS, 10 mM MgCl2.
acetonitrile containing diphenhydramine as internal standard at 4 °C. The supernatant
was used for LC-MS analysis and half life time t1/2 was calculated from decreasing
concentrations/peak areas.
LC conditions: samples were analyzed with an Ultimate 3000 HPLC (Thermo Fisher,
Waltham, MA, USA) coupled to a TSQ Quantum Access Max triple quadrupole mass
spectrometer (Thermo Fisher, Waltham, MA, USA) in SRM mode. Analysis was
performed on a Nucleodur C18 Pyramid column (3 µm, 2x150 mm, Macherey-Nagel,
Düren, Germany) with a flow of 0.6 mL/min and a water (0.1% formic acid) and
acetonitrile (0.1% formic acid) eluent system. Gradient as follows: 10% acetonitrile for
1 min, 10–90% acetonitrile over 0.7 min, 90% acetonitrile for 1.8 min, equilibration at
10% acetonitrile for 1 min.
MS conditions: calibration of mass spectrometer parameters was performed
individually for each compound:

[2] = tested on: E. coli strain BL21 (DE3) pQEYAEM; assay: microbe, parasite or virus in culture; assay type: cell-based; details: Escherichia coli, Fig. 6A
E. coli TolC = assay: microbe, parasite or virus in culture; assay type: cell-based; details: Escherichia coli
MtDXPS [3] = target: T1, MtDXPS (Mycobacterium tuberculosis, UniProt P9WNS3)
MtDXPS [4] = target: T1, MtDXPS; assay: biochemical
MtDXPS [5] = target: T1, MtDXPS; assay: microscale thermophoresis (MST) dissociation constant; assay type: binding; details: Fig. 4F
Description: ETB + A <===> ETAB : Ka2 (Ka2 is the dissociation constant of pyruvate with […]
ETA + B <===> ETAB : Kb2 (Kb2 is the dissociation constant of ThDP with DXPS) E + I <===> EI* : Ki* (Ki* is the Morrison inhibition constant of inhibitor with apoDXPS) ETAB ---> ET + P : kcat (kcat is the catalytic constant of DXPS) […]
microscale thermophoresis (MST)
MST measurements were performed on a Monolith NT.115 (NanoTemper
Technologies GmbH, Germany) instrument using red-dye-NHS fluorescent labeling.
Each purified MtDXPS sample was labeled with red-dye-NHS second generation dye, according to the supplied protocol. Measurements were performed in 100 m M Tris-HCl (pH 7.6) containing 0.05% Tween-20 and 5% DMSO in premium treated capillaries.
The final concentration of each labeled protein in the assay was 100 n M. The inhibitors were titrated in 1:1 dilutions according to the supplier’s recommendations. All binding reactions were incubated at room temperature for 30 min before loading, and then pre-incubated for 5 min at room temperature after loading into the capillaries. Experiments were performed in duplicates, using 40% LED power, medium MST power, laser on time 20 s, and laser off time 3 s. Kds of the inhibitors were extracted from raw data at a 10–20 s on time according to the manufacturer’s instructions. A denaturation test was performed to exclude any nonspecific spectral interactions between the inhibitors […]
The solutions were vortexed, and then the rest of the assay components was added in the following order: HEPES, pH = 8 (100 m M), bovine serum albumin (1 mg/mL), cysteine (2 mM), ThDP (0.325 μM), coenzyme-A (150 μM), TCEP (300 μM), pyruvate (150 μM) and MgCl2 (1 mM). […] Porcine PDH (final concentration of 0.01 U/ mL) was then added to initiate the reactions, which were monitored spectrophotometrically by measuring the […]

[6] = tested on: E. coli strain BL21 (DE3) pET22b-H6[…]; assay: microbe, parasite or virus in culture; assay type: cell-based; details: Escherichia coli, Fig. 6B
DrDXPS (WT) [7] = target: T2, DrDXPS (WT) (Deinococcus radiodurans, UniProt Q9RUB5); assay: biochemical; assay type: biochemical; details: for inhibition at 100 µM: read-out: Inhibition % at 100 μM, Fig. 5E, DrDXPS (WT); for IC50: DrDXPS (WT) IC50, Fig. 2B
A549 = assay: toxicity against human cell lines; assay type: cell-based; details: A549, 48 h, read-out: Toxicity Human cell lines EC50 (μM) A549
MtDXPS [8] = target: T1, MtDXPS; assay: biochemical; details: for inhibitory activity against MtDXPS, SAR statement: SAR discussion of Table 1A–C
mCherry-Mtb H37Rv = assay type: cell-based, Mycobacterium tuberculosis
DrDXPS (WT) [9] = target: T2, DrDXPS (WT); details: pseudo-inhibitors; cited from earlier work
MtDXPS [10] = target: T1, MtDXPS; details: cited from earlier work
IspC = details: Target enzyme: IspC; Fig. 1A; cited from earlier work
IspF = details: read-out: Activity on target enzyme: IC50; cited from earlier work
[11] = [IPTG] 0.5 mM (E. coli IspC overexpression)
[12] = [IPTG] 0.5 mM (MtDXPS overexpression)

T1 sequence (P9WNS3 whole entry, looked up): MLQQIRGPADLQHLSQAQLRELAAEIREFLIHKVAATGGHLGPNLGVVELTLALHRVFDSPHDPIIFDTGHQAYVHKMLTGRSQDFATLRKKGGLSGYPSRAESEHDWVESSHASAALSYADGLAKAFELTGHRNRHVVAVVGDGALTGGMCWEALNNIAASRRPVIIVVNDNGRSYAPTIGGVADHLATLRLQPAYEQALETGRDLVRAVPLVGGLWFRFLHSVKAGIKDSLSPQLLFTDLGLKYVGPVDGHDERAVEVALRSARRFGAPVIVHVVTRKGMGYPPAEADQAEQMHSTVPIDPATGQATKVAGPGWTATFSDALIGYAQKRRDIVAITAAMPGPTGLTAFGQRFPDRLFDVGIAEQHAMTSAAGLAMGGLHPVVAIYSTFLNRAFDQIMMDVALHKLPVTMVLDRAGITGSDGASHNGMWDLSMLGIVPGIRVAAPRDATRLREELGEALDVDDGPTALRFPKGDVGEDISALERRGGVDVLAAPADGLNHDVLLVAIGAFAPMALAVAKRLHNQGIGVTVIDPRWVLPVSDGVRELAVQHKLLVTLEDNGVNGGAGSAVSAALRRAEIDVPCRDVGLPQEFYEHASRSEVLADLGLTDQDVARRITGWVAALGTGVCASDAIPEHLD
T2 sequence (Q9RUB5 whole entry, looked up): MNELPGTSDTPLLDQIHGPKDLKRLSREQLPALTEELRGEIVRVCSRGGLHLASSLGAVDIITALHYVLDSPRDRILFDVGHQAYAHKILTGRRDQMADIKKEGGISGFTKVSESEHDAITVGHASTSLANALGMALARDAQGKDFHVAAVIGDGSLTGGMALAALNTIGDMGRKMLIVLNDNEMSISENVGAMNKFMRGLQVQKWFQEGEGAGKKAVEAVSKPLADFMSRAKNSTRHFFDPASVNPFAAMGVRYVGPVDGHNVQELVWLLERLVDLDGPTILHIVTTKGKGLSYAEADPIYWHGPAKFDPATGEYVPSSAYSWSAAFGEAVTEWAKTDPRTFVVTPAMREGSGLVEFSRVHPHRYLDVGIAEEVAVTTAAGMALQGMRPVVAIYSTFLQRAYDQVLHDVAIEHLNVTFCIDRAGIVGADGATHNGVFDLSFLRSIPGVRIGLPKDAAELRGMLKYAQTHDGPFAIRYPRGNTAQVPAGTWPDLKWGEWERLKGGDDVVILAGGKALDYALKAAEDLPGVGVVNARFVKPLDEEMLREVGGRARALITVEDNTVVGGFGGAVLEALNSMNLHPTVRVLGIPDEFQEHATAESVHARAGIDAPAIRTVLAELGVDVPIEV

**Q.** For CCCCOP(=O)(O)C(C)=O [BAP, Butylacetylphosphonate], which “Activity on target pathogen: MIC” value (E. coli) is on record?
**A.** 5 µM

**Q.** What about the Ki (DXPS; read-out: Activity on target enzyme: Ki, Fig. 1A) of the same compound?
**A.** 5.6 µM

**Q.** What does the source list for Cc1ccc(-n2sc3ccccc3c2=O)cc1S(=O)(=O)N1CCOCC1 [BITZ]?
**A.** IC50 (IspD): 0.45 µM; EC50 (P. falciparum): 4.3 µM

**Q.** With OCc1cn(Cc2ccc(Cl)c(Cl)c2)c2ccccc12 [Compound 7] as the compound, how does the MIC (M. tuberculosis strains; read-out: Antitubercular activity Strain & MIC (μM) A) read?
**A.** 10 µM (≈ 3.06 µg/mL)

**Q.** What about the MIC (M. tuberculosis strains; read-out: Antitubercular activity Strain & MIC (μM) B) of the same compound?
**A.** 10 µM (≈ 3.06 µg/mL)

**Q.** And the MIC (M. tuberculosis strains; read-out: Antitubercular activity Strain & MIC (μM) C)?
**A.** 5 µM (≈ 1.53 µg/mL)

**Q.** And the MIC (M. tuberculosis strains; read-out: Antitubercular activity Strain & MIC (μM) D)?
**A.** 5 to 10 µM (≈ 1.53 to 3.06 µg/mL)

**Q.** What about the MIC (M. tuberculosis strains; read-out: Antitubercular activity Strain & MIC (μM) E) of the same compound?
**A.** 5 to 10 µM (≈ 1.53 to 3.06 µg/mL)

**Q.** What about the MIC (M. tuberculosis strains; read-out: Antitubercular activity Strain & MIC (μM) F) of the same compound?
**A.** 5 to 10 µM (≈ 1.53 to 3.06 µg/mL)

**Q.** What about the EC50 (HEK293) of the same compound?
**A.** 16 ± 7 µM

**Q.** What about the EC50 (HepG2) of the same compound?
**A.** 0.8 ± 0.2 µM

**Q.** And the half-life at 10 µM [1]?
**A.** 6 ± 2 min

**Q.** And the MIC ([2]; [IPTG] 0 mM)?
**A.** 13 ± 1 µM (≈ 3.98 µg/mL)

**Q.** And the MIC [2, 11]?
**A.** 10 ± 2 µM (≈ 3.06 µg/mL)

**Q.** What about the MIC (E. coli TolC) of the same compound?
**A.** 22 ± 1 µM (≈ 6.74 µg/mL)

**Q.** What about the “hit validation (false-positive check)” value (MtDXPS [3]) of the same compound?
**A.** true inhibitors

**Q.** And the IC50 (MtDXPS [4]; IC50 (μM))?
**A.** 34 ± 4 µM

**Q.** What about the IC50 (MtDXPS [4]; IC50 against MtDXPS) of the same compound?
**A.** 34 µM and 82 µM

**Q.** What about the IC50 (MtDXPS [4]; IC50 against MtDXPS (MOI study)) of the same compound?
**A.** 12 µM and 34 µM and 33 µM and 59 µM

**Q.** What about the “mode of inhibition on MtDXPS” value (MtDXPS [4]; MOI study, comparison of IC50 under varied [ThDP], [PYR], [D-GAP]) of the same compound?
**A.** competitive with ThDP and D-GAP, but non-competitive with PYR

**Q.** And the “equilibration time (slow-binding)” value (MtDXPS [4]; time-dependent progress curves, Fig. 4A, inhibitor 100 µM)?
**A.** ~100 s

**Q.** What about the Kd (MtDXPS [5]) of the same compound?
**A.** 1.37 µM

**Q.** What about the MIC ([6]; [IPTG] 0 mM) of the same compound?
**A.** 10 ± 3 µM (≈ 3.06 µg/mL)

**Q.** What about the MIC [6, 12] of the same compound?
**A.** 14 ± 2 µM (≈ 4.29 µg/mL)

**Q.** And the inhibition at 100 µM (DrDXPS (WT) [7]; [ThDP] 0.1 μM (1.6x Km), [PYR] 0.5 mM (2.4x), [D-GAP] […] (1.5x))?
**A.** 63 ± 4%

**Q.** What about the inhibition at 100 µM (DrDXPS (WT) [7]; [ThDP] 0.1 μM (1.6x Km), [PYR] […] (1.2x), [D-GAP] 0.5 mM (2.9x)) of the same compound?
**A.** 51 ± 3%

**Q.** What about the inhibition at 100 µM (DrDXPS (WT) [7]; [ThDP] 0.1 μM (1.6x Km), [PYR] […] (1.2x), [D-GAP] […] (1.5x)) of the same compound?
**A.** 61 ± 5%

**Q.** And the inhibition at 100 µM (DrDXPS (WT) [7]; [ThDP] 0.2 μM (3.2x Km), [PYR] […] (1.2x), [D-GAP] […] (1.5x))?
**A.** 48 ± 4%

**Q.** And the EC50 (A549)?
**A.** ~50 µM

**Q.** What about the Ki (MtDXPS [8]; K i* (μM), Table 1A, indole derivatives, MtDXPS) of the same compound?
**A.** 1.3 ± 0.2 µM

**Q.** And the Ki (MtDXPS [8]; Morrison constant Ki* against MtDXPS, two-step tight-binding Morrison model, Dynafit, text and Fig. 4C–E)?
**A.** 1.29 µM

**Q.** Which EC50 (HEK293) does the source give for OCc1cn(Cc2ccc(Cl)c(Cl)c2)c2ccc(F)cc12 [Compound 17] here?
**A.** > 50 µM

**Q.** What about the EC50 (HepG2) of the same compound?
**A.** > 50 µM

**Q.** And the “activity against M. tuberculosis strains” value (mCherry-Mtb H37Rv)?
**A.** no activity

**Q.** And the half-life at 10 µM [1]?
**A.** 27 ± 10 min

**Q.** And the EC50 (A549)?
**A.** > 50 µM

**Q.** And the “inhibitory activity against MtDXPS, SAR statement” value (MtDXPS [8])?
**A.** more active than their parent molecules

**Q.** And the Ki (MtDXPS [8]; Table 1A, indole derivatives, MtDXPS, read-out: K i*)?
**A.** 0.4 ± 0.06 µM

**Q.** With Nc1ccc(/C(Cc2ccc(Cl)cc2)=N/O)c(O)c1 [Compound 25] as the compound, how does the EC50 (HEK293) read?
**A.** 18 ± 5.5 µM

**Q.** And the EC50 (HepG2)?
**A.** 0.73 ± 0.12 µM

**Q.** What about the “activity against M. tuberculosis strains” value (mCherry-Mtb H37Rv) of the same compound?
**A.** retains some activity

**Q.** What about the half-life at 10 µM [1] of the same compound?
**A.** 56 ± 0.4 min

**Q.** What about the EC50 (A549) of the same compound?
**A.** ~50 µM

**Q.** What about the “inhibitory activity against MtDXPS, SAR statement” value (MtDXPS [8]) of the same compound?
**A.** more active than their parent molecules

**Q.** And the Ki (MtDXPS [8]; Table 1B, oxime derivatives, MtDXPS, read-out: K i*)?
**A.** 0.1 ± 0.03 µM

**Q.** What does the source list for Cc1ncc(Cc2csc(CCO)c2C)c(N)n1 [DZT, deazathiamine, reference compound]?
**A.** inhibition of DrDXPS (DrDXPS (WT) [9]): weak inhibitor; activity against MtDXPS (MtDXPS [10]): not active; IC50 (MtDXPS [4]): > 4000 µM; IC50 (DrDXPS (WT) [7]; [ThDP] 0.1 μM (1.6x Km), [PYR] 0.5 mM (2.4x), [D-GAP] 0.5 mM (2.9x)): 273 ± 16 µM; IC50 (DrDXPS (WT) [7]; [ThDP] 0.5 μM (8x Km), [PYR] 0.5 mM (2.4x), [D-GAP] 1.0 mM (5.8x)): 1210 ± 156 µM; IC50 (DrDXPS (WT) [7]; [ThDP] 0.5 μM (8x Km), [PYR] […] (1.2x), [D-GAP] 0.5 mM (2.9x)): 486 ± 136 µM; IC50 (DrDXPS (WT) [7]; reference condition [ThDP] 0.5 μM (8x Km), [PYR] 0.5 mM (2.4x), [D-GAP] 0.5 mM (2.9x)): 845 ± 177 µM; mode of inhibition on DrDXPS (DrDXPS (WT) [7]; MOI study, Fig. 2B): competitive with ThDP, PYR and D-GAP

**Q.** With O=CN(O)CCCP(=O)(O)O [Fosmidomycin, fosmidomycin, reference compound] as the compound, how does the EC50 (P. falciparum) read?
**A.** 0.98 µM

**Q.** What about the MIC ([2]; [IPTG] 0 mM) of the same compound?
**A.** 76 ± 14 µM (≈ 13.9 µg/mL)

**Q.** And the MIC [2, 11]?
**A.** > 1000 µM

**Q.** And the MIC ([6]; [IPTG] 0 mM)?
**A.** 56 ± 8 µM (≈ 10.3 µg/mL)

**Q.** What about the MIC [6, 12] of the same compound?
**A.** 59 ± 10 µM (≈ 10.8 µg/mL)

**Q.** What about the IC50 (IspC) of the same compound?
**A.** 0.35 µM

**Q.** With CC1(C)C(=O)ON(Cc2ccccc2Cl)C1=O [Ketoclomazone, ketoclomazone] as the compound, how does the IC50 (DXPS; read-out: Activity on target enzyme: IC50, Fig. 1A) read?
**A.** 1 µM

**Q.** For CCOC(=O)C1=C(C)N=c2s/c(=C\c3cc(Br)c(O)c(Br)c3)c(=O)n2C1c1cccs1 (stereo not drawn) [TZLP], which IC50 (IspF) is on record?
**A.** 9.6 µM

**Q.** What about the EC50 (P. falciparum) of the same compound?
**A.** 1.5 µM
